{
  "source": "ChEMBL document CHEMBL5576125",
  "about": "“Discovery of Pyrazolopyrazines as Selective, Potent, and Mutant-Active MET Inhibitors with Intracranial Efficacy” (J Med Chem, 2024)",
  "key": {"[1]": {"target": "T1, Hepatocyte growth factor receptor (Homo sapiens, UniProt P08581, D1228N)", "T1 sequence (P08581 25-1390 D1228N limits assumed)": "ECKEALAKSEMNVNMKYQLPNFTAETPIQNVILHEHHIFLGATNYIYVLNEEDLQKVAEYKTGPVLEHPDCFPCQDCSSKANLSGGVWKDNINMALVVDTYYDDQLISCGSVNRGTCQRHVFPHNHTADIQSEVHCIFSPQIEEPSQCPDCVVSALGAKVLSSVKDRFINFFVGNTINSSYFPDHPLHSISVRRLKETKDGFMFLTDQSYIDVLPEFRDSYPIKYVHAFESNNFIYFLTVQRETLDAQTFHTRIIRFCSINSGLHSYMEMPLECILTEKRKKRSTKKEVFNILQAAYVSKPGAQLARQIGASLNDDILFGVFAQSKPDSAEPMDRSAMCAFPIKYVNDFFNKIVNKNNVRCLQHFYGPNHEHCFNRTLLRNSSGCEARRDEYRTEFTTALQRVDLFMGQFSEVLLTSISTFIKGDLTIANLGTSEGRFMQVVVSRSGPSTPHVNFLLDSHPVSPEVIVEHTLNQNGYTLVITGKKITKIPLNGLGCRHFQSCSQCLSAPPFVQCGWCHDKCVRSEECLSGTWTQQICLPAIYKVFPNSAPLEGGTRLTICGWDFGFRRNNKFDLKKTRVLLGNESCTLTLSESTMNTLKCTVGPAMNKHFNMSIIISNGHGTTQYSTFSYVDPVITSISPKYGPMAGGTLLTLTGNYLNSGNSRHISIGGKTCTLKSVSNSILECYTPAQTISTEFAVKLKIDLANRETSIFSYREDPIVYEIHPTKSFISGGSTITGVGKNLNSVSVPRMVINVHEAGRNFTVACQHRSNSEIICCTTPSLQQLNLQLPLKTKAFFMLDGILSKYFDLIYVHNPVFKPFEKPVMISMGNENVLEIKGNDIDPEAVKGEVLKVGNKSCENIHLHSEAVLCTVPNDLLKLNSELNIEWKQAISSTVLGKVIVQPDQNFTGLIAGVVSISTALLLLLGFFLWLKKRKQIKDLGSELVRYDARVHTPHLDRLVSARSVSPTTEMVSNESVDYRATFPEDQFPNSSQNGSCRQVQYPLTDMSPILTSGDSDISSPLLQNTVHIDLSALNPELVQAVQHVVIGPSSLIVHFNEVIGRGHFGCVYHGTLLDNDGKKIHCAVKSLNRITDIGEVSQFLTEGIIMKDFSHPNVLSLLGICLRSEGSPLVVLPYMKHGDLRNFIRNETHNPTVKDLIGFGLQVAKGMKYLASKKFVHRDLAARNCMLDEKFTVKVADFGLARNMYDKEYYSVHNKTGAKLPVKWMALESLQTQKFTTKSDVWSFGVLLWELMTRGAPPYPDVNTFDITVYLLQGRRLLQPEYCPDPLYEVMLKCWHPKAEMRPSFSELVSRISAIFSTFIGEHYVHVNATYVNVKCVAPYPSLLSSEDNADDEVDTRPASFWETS", "assay": "Displacement of tracer 236 from N-terminal GST-tagged recombinant human MET D1228N mutant (956 to end residues) expressed in Sf9 insect cells incubated for 1 hr by TR-FRET assay"}, "[2]": {"target": "Hepatocyte growth factor receptor (Homo sapiens, UniProt P08581, F1200I)", "assay": "Displacement of tracer 236 from N-terminal GST-tagged recombinant human MET F1200I mutant (956 to end residues) expressed in Sf9 insect cells incubated for 1 hr by TR-FRET assay"}, "[3]": {"assay": "Displacement of tracer 236 from N-terminal GST-tagged recombinant human MET […] mutant (956 to end residues) expressed in Sf9 insect cells incubated for 1 hr by TR-FRET assay"}, "[4]": {"target": "Hepatocyte growth factor receptor (Homo sapiens, UniProt P08581, Y1230H)", "sequence (P08581 25-1390 Y1230H limits assumed)": "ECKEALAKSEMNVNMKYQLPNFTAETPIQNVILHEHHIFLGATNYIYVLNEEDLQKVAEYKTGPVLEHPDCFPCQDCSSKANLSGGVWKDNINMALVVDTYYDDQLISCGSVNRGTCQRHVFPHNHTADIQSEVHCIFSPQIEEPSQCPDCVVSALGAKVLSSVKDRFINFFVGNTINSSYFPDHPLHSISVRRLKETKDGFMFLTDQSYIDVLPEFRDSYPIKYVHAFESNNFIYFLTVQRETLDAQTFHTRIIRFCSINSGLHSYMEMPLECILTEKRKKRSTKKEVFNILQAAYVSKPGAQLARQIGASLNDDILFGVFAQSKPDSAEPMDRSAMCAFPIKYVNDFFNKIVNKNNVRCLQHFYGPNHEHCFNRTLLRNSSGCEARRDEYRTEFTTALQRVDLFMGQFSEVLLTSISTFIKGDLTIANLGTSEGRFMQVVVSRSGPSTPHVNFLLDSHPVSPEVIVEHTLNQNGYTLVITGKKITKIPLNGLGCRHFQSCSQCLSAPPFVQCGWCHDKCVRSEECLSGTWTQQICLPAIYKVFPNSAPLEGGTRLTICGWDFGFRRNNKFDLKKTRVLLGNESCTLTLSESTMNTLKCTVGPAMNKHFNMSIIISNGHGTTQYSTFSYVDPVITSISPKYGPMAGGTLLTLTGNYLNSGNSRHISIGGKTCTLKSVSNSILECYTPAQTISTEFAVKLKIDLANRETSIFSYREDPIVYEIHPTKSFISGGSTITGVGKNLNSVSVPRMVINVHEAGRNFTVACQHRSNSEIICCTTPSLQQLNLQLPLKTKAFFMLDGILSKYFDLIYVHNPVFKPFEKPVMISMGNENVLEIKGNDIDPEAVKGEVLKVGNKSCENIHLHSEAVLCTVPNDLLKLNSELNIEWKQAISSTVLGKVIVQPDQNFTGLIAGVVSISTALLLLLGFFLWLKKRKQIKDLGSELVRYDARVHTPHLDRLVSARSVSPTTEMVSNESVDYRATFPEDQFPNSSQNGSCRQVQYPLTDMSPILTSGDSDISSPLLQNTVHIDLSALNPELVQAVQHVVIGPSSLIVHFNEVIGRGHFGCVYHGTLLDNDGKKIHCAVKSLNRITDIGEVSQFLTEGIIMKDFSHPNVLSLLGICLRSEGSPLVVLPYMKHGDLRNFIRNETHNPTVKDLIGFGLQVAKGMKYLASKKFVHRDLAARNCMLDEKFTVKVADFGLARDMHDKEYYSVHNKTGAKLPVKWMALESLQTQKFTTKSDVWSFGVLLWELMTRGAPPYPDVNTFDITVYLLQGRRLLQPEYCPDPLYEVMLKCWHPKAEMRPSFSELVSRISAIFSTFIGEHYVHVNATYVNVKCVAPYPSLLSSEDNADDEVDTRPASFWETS", "assay": "Displacement of tracer 236 from N-terminal GST-tagged recombinant human MET Y1230H mutant (956 to end residues) expressed in Sf9 insect cells incubated for 1 hr by TR-FRET assay"}, "[5]": {"target": "T1, Hepatocyte growth factor receptor", "assay": "Inhibition of MET D1228N mutant (unknown origin) transfected in mouse NIH3T3 cells incubated for 1 hr by In-Cell Western assay", "format": "cell-based"}, "[6]": {"assay": "Displacement of tracer 236 from N-terminal GST-tagged recombinant human MET exon 14 deletion mutant (956 to end residues) expressed in Sf9 insect cells incubated for 1 hr by TR-FRET assay"}, "[7]": {"assay": "Efflux ratio of apparent permeability across basolateral to apical over apical to basolateral side in MDCKII-MDR1 cells at 1 uM incubated for 2 hrs in orbital shaker by LC-MS/MS analysis", "format": "ADME, cell-based, Canis lupus familiaris", "settings": "dog, MDCK-MDR1"}},
  "data": [
    {"smiles": "Cn1ccc(CCN(c2cc(F)c(NC(=O)c3ccnn(-c4ccc(F)cn4)c3=O)cc2F)c2cccn3nccc23)n1", "values": [
      {"measurement": "IC50", "setting": "[1]", "value": 4, "unit": "nM"},
      {"measurement": "IC50", "setting": "[2]", "value": 58, "unit": "nM"},
      {"measurement": "IC50", "setting": "[3]", "value": 19, "unit": "nM"},
      {"measurement": "IC50", "setting": "[4]", "value": 2, "unit": "nM"},
      {"measurement": "IC50", "setting": "[5]", "value": 25, "unit": "nM"}
    ]},
    {"smiles": "Cc1cc2c(N(c3cc(F)c(NC(=O)c4ccnn(-c5ccc(F)cn5)c4=O)cc3F)[C@H]3C[C@H](c4ccn(C)n4)C3)nccn2n1", "values": [
      {"measurement": "IC50", "setting": "[1]", "value": 1770, "unit": "nM"},
      {"measurement": "IC50", "setting": "[6]", "value": 397, "unit": "nM"},
      {"measurement": "IC50", "setting": "[2]", "value": 5000, "unit": "nM"},
      {"measurement": "IC50", "setting": "[4]", "value": 758, "unit": "nM"},
      {"measurement": "IC50", "setting": "[5]", "value": "> 5000", "unit": "nM"},
      {"measurement": "efflux ratio at 2 h, 1 µM", "setting": "[7]", "value": 0.9}
    ]},
    {"smiles": "Cn1ccc([C@H]2C[C@H](N(c3cc(C(F)F)c(NC(=O)c4ccnn(-c5ccc(F)cn5)c4=O)cc3F)c3nccn4nccc34)C2)n1", "values": [
      {"measurement": "IC50", "setting": "[1]", "value": 79, "unit": "nM"},
      {"measurement": "IC50", "setting": "[6]", "value": 13, "unit": "nM"},
      {"measurement": "IC50", "setting": "[2]", "value": 3280, "unit": "nM"},
      {"measurement": "IC50", "setting": "[3]", "value": 942, "unit": "nM"},
      {"measurement": "IC50", "setting": "[4]", "value": 32, "unit": "nM"},
      {"measurement": "IC50", "setting": "[5]", "value": 519, "unit": "nM"}
    ]},
    {"smiles": "CC(C)N(c1cc(F)c(NC(=O)c2ccnn(-c3ccc(F)cc3)c2=O)cc1F)c1cccn2nccc12", "values": [
      {"measurement": "IC50", "setting": "[1]", "value": 86, "unit": "nM"},
      {"measurement": "IC50", "setting": "[6]", "value": 71, "unit": "nM"},
      {"measurement": "IC50", "setting": "[2]", "value": 763, "unit": "nM"},
      {"measurement": "IC50", "setting": "[3]", "value": 298, "unit": "nM"},
      {"measurement": "IC50", "setting": "[4]", "value": 92, "unit": "nM"},
      {"measurement": "IC50", "setting": "[5]", "value": 336, "unit": "nM"}
    ]}
  ]
}
